Patent US8835134B2, “Cycloastragenol monoglucoside, preparation, pharmaceutical composition and application thereof” (Tianjin Institute of Pharmaceutical Research, priority 2007, dated 2014)

System: anesthetized open-chest dogs
Experiment: Hemodynamics of anesthetized open-chest dogs, intravenous infusion
Assay type: in vivo, mongrel dogs
Details: 0.3 mg/kg iv
Protocol: The animals were anesthetized by intravenous injection of 30 mg/kg sodium pentobarbital, tracheally intubated, and mechanically ventilated with positive air pressure. Left thoracotomy was performed through the fourth intercostal space and the heart was suspended in a pericardial cradle, the aortic root was isolated and a probe of blood flow meter (12 or 14 mm in diameter) was fixed to measure the aortic blood flow as a representation of cardiac output (CO), the circumflex branch of left coronary artery was isolated and a probe of blood flow meter (2 or 2.5 mm in diameter) was fixed to measure the coronary blood flow (CBF). A polyethylene catheter filled with heparin physiological saline was inserted through cardiac apex into the left ventricle to measure the left ventricular pressure (LVP) and left ventricular end-diastolic pressure (LVEDP), Peak positive and peak negative first derivatives of the LVP (+ LVdp/dt and − LVdp/dt) were calculated with the Acknowledge software. The systolic blood pressure (SBP), diastolic blood pressure (DBP) and mean arterial pressure (MAP) were measured by polyethylene catheter via the femoral artery, ECG □ was measured by a AC-601G ECG amplifier. The above-mentioned analog signal was input into a data acquisition workstation (MP100, BIOPAC Systems, USA) to a computer running Acknowledge (version 3.7.1).
After surgery, various indexes before administration were recorded until the indexes were stable, and then intravenous infusion administration was conducted. Thirty dogs were divided into five groups (six dogs in each group), the experiment groups were given 0.15, 0.3, 0.6 mg/kg of ASP-[…] respectively, the normal control group was given 1 ml/kg of solvent, and the positive control group was given 0.3 mg/kg of astragaloside IV. The delivery volumes were 15 ml for each dog was and the delivery velocity was 1 ml/min. The indexes were recorded at 5, 10, 15, 20, 30, 45, 60, 90 and 120 mins after drug administration. At the end of experiment, the hearts were excised and weighted. The myocardial blood flow for per hectogram (CF), coronary resistance (CR), cardiac index (CI), left ventricular work (LVW) and total peripheral resistance (TPR) were calculated according to the following formulae: CF=CBF×[…]/heart weight CR=MAP/CF CI=CO/0.11×(body weight)^2/3 LVW=CO×(MAP−5)×1.052×0.0136 TPR=MAP×79.92/CO
Data are expressed as mean±SD ( x±s), the paired t-test was used to compare the significance between before and after administration, the unpaired t-test was adopted for comparison between groups.

## CC(C)(O)[C@@H]1CC[C@](C)([C@H]2[C@@H](O)C[C@@]3(C)[C@@H]4C[C@H](O[C@@H]5O[C@H](CO)[C@@H](O)[C@H](O)[C@H]5O)[C@H]5C(C)(C)[C@@H](O[C@@H]6OC[C@@H](O)[C@H](O)[C@H]6O)CC[C@@]56C[C@@]46CC[C@]23C)O1 [astragaloside IV, reference compound]
30 min after administration
  TPR: 5430 ± 1302 dyn · s/cm^5
  TPR change vs before administration: (206 ± 718) dyn · s/cm^5
  dp/dt: 1140 ± 92 mmHg/s
  dp/dt change vs before administration: (85 ± 84) mmHg/s
  −dp/dt: −807 ± 124 mmHg/s
  −dp/dt change vs before administration: (28 ± 160) mmHg/s
45 min after administration
  CF: 54.0 ± 15.0 ml/min/100 g
  CF change vs before administration: (−2.9 ± 7.7) ml/min/100 g
  CI: 2.08 ± 0.52 L/min/m^2
  CI change vs before administration: (−0.06 ± 0.19) L/min/m^2
  CO: 1.17 ± 0.32 L/min
  CO change vs before administration: (−0.03 ± 0.10) L/min
  CR: 1.44 ± 0.50 mmHg/ml/min/100 g
  CR change vs before administration: (0.04 ± 0.25) mmHg/ml/min/100 g
  LVEDP: 0.9 ± 2.1 mmHg
  LVEDP change vs before administration: (−1.55 ± 1.42) mmHg
  LVP: 98 ± 10 mmHg
  LVP change vs before administration: (−4.5 ± 11.7) mmHg
  LVW: 1.14 ± 0.40 kg · m
  LVW change vs before administration: (−0.07 ± 0.11) kg · m
  TPR: 5301 ± 1638 dyn · s/cm^5
  TPR change vs before administration: (77 ± 552) dyn · s/cm^5
  dp/dt: 1124 ± 163 mmHg/s
  dp/dt change vs before administration: (69 ± 73) mmHg/s
  −dp/dt: −809 ± 137 mmHg/s
  −dp/dt change vs before administration: (26 ± 159) mmHg/s
60 min after administration
  CF: 53.7 ± 18.1 ml/min/100 g
  CF change vs before administration: (−3.3 ± 5.1) ml/min/100 g
  CI: 2.10 ± 0.53 L/min/m^2
  CI change vs before administration: (−0.05 ± 0.11) L/min/m^2
  CO: 1.18 ± 0.34 L/min
  CO change vs before administration: (−0.02 ± 0.06) L/min
  CR: 1.51 ± 0.64 mmHg/ml/min/100 g
  CR change vs before administration: (0.10 ± 0.23) mmHg/ml/min/100 g
  LVEDP: 0.8 ± 1.7 mmHg
  LVEDP change vs before administration: (−1.57 ± 1.39) mmHg
  LVP: 98 ± 11 mmHg
  LVP change vs before administration: (−5.3 ± 15.3) mmHg
  LVW: 1.16 ± 0.47 kg · m
  LVW change vs before administration: (−0.05 ± 0.09) kg · m
  TPR: 5278 ± 1714 dyn · s/cm^5
  TPR change vs before administration: (54 ± 458) dyn · s/cm^5
  dp/dt: 1098 ± 192 mmHg/s
  dp/dt change vs before administration: (43 ± 77) mmHg/s
  −dp/dt: −788 ± 126 mmHg/s
  −dp/dt change vs before administration: (48 ± 177) mmHg/s
90 min after administration
  CF: 57.4 ± 19.0 ml/min/100 g
  CF change vs before administration: (0.4 ± 9.5) ml/min/100 g
  CI: 2.15 ± 0.52 L/min/m^2
  CI change vs before administration: (0.01 ± 0.08) L/min/m^2
  CO: 1.21 ± 0.32 L/min
  CO change vs before administration: (0.00 ± 0.05) L/min
  CR: 1.43 ± 0.83 mmHg/ml/min/100 g
  CR change vs before administration: (0.02 ± 0.51) mmHg/ml/min/100 g
  LVEDP: 1.4 ± 0.5 mmHg
  LVEDP change vs before administration: (−0.97 ± 0.77) mmHg
  LVP: 99 ± 15 mmHg
  LVP change vs before administration: (−4.2 ± 18.7) mmHg
  LVW: 1.14 ± 0.44 kg · m
  LVW change vs before administration: (−0.07 ± 0.08) kg · m
  TPR: 4952 ± 1517 dyn · s/cm^5
  TPR change vs before administration: (−272 ± 349) dyn · s/cm^5
  dp/dt: 1100 ± 160 mmHg/s
  dp/dt change vs before administration: (45 ± 73) mmHg/s
  −dp/dt: −762 ± 139 mmHg/s
  −dp/dt change vs before administration: (74 ± 184) mmHg/s
120 min after administration
  CF: 55.6 ± 19.7 ml/min/100 g
  CF change vs before administration: (−1.4 ± 11.1) ml/min/100 g
  CI: 2.14 ± 0.50 L/min/m^2
  CI change vs before administration: (0.00 ± 0.06) L/min/m^2
  CO: 1.20 ± 0.30 L/min
  CO change vs before administration: (0.00 ± 0.03) L/min
  CR: 1.51 ± 0.82 mmHg/ml/min/100 g
  CR change vs before administration: (0.11 ± 0.41) mmHg/ml/min/100 g
  LVEDP: 1.8 ± 0.8 mmHg
  LVEDP change vs before administration: (−0.66 ± 0.47) mmHg
  LVP: 97 ± 14 mmHg
  LVP change vs before administration: (−5.5 ± 19.3) mmHg
  LVW: 1.17 ± 0.45 kg · m
  LVW change vs before administration: (−0.04 ± 0.05) kg · m
  TPR: 5046 ± 1440 dyn · s/cm^5
  TPR change vs before administration: (−178 ± 394) dyn · s/cm^5
  dp/dt: 1088 ± 182 mmHg/s
  dp/dt change vs before administration: (33 ± 59) mmHg/s
  −dp/dt: −748 ± 167 mmHg/s
  −dp/dt change vs before administration: (88 ± 215) mmHg/s
Before administration
  CF: 57 ± 16.1 ml/min/100 g
  CI: 2.14 ± 0.52 L/min/m^2
  CO: 1.20 ± 0.32 L/min
  CR: 1.40 ± 0.49 mmHg/ml/min/100 g
  LVEDP: 2.4 ± 1.1 mmHg
  LVP: 103 ± 12 mmHg
  LVW: 1.21 ± 0.44 kg · m
  TPR: 5224 ± 1465 dyn · s/cm^5
  dp/dt: 1055 ± 157 mmHg/s
  −dp/dt: −836 ± 194 mmHg/s
Vs pre-administration
  Heart rate: decreased slightly
  blood pressure: no significant change
Within 120 min
  CF and CR: no significant changes
